Test results as given in patent US20150335055A1, “BEVERAGE PR[…] BASED ON PIMARICIN AND HEADSPACE GAS” (PEPSICO, INC., priority 2013, published 2015).

Columns and labels:
Assay type in all cases: physicochemical
[1] = Pimaricin concentration over time in Example 1 samples by UV-Visible spectroscopy; conditions: pimaricin in the absence of cyclodextrin; initial 1.1 ppm; carbonated mock grape beverage, 25° C.
Source text: (§1) Such reactions are a consequence of the formation of reactive oxygen species (ROS) wherein oxygen merely serves as an intermediate in the transfer of electrons in REDOX type reactions which ultimately result in the degradation of more complex molecules such as pimaricin. In this regard, O2 behaves similar to a catalyst. Similar to many reactions involving catalyst, the amount of oxygen required to drive in such reactions is very small. In this regard, it is of interest to evaluate the stability of pimaricin in solution under differing conditions of oxygen tension. Clearly, it is also of interest to establish whether the formation of a complex between pimaricin and β-cyclodextrin serves to stabilize pimaricin from degradation by reaction with oxygen. […] Briefly, pimaricin yields a very distinctive UV-visible spectrum with 3 separate absorption maxima. As pimaricin degrades, the peak heights diminish. Degradation can be tracked through the diminishing peak height of any single peak maxima or through changes in relative peak height.
A 16 week trial was conducted with a mock grape 12 Brix 2% grape juice mock glass “pony” 9.8 oz. bottle. Beverages were carbonated to 3.7 and 4.5 volumes. Five containers of each CO2 level were not inoculated and served as negative controls. […]

[2] = Loss of pimaricin over time in water as a function of O2 content and complex with β-cyclodextrin (Background Example 3)
Source text: as §1
Given a method to monitor the changes in concentration of pimaricin, it is then possible to establish whether pimaricin degrades differently as a function of variables such as initial oxygen tension of solution. Background Example 3, FIG. 3 captures results for the degradation of pimaricin over a time period of several months as a function of initial oxygen tension and the presence or absence of a complex between pimaricin and β (beta) cyclodextrin.
The initial concentration of pimaricin in complex ≧400 ppm and so pimaricin is fully bound to β-cyclodextrin. Measurements in distilled water at neutral pH and 25° C. Thus, regardless of the presence or absence of a complex with cyclodextrin, pimaricin is subject to degradation over time when in solution.

[3] = Degradation kinetics of pimaricin in beverage without β-cyclodextrin, UV-visible peak ratio (Background Example 2); conditions: beverage pH 3.4; no β-cyclodextrin
Source text: as §1
Freshly prepared samples of pimaricin in water yield a spectrogram of 3 peak 1 (320 nm) peak 2 (304 nm) and peak 3 (291 nm). […] These differences are a reflection of the conjugated diene structure of pimaricin. As the integrity of the conjugate structure gives way to degradation, the relative peak heights are subject to change. […]

For “(IR,3S,5R,7R,8E,12R,14E,16E,18E,20E,22R,24S,25R,26S)-{[3S,4S,5S,6R)-4-amino-3,5-dihydroxy-6-methyloxan-2-yl]oxy}-1,3,26 trihydroxy-12-methyl-10-oxo-6,11,28-trioxatricyclo[22.3.1.0^5,7]octacosa-8,14,16,18,20 pentaene-25-carboxylic acid [pimaricin]”, the half-life of degradation [1] was “about 35 days”, the “effect of lowering oxygen concentration on rate of degradation” value ([2]; not complexed, oxygen lowered to 3500 ppb) was “does not measurably impact the rate of degradation” and the degradation over time ([2]; not complexed, water containing oxygen in excess of 8500 ppb) was “degrades quite quickly”. The “rate of degradation versus water containing 8300 ppm O2” value ([2]; pimaricin alone in water containing only, neutral pH, 25° C.) was “about the same rate”, the “rate of degradation versus pimaricin complex β-cyclodextrin” value ([2]; water containing 8300 ppb O2, distilled water, neutral pH, 25° C.) was “slightly faster rate” and the “degradation in aqueous suspension” value [3] was “degrades relatively quickly”.
